Results on 26 molecules are retold here after patent US7960508B2, “Peptide having cytotoxicity inhibitory activity and method of screening these peptide having cytotoxicity inhibitory activity” (Juridical Foundation The Chemo-Sero-Therapeutic Research …, priority 2001, dated 2011).

Non-standard residues stand in square brackets, D forms with d. Residues, ends and D or L forms follow the SMILES beside them. No end group written: not given here. Sec = N[C@@H](C[SeH])C(=O)O

The test system of series [1] is Dami cells. Description: Screening of efficacious peptides: cytotoxicity-inhibitory activity (Example 3). The following applies: for Activity/1 mM Sec: cytotoxicity-inhibitory activity per 1 mM selenocysteine. In kind it is cell-based. The method, then: (§1) The cells were washed twice with 50% PBS/SA/0.03% HSA (manufactured by SIGMA) and suspended in the same medium at 3×10^4 cells/ml.
(§2) For assessment, it was examined to what folds of dilution of tested samples the cells could survive in view of the fact that on Day 4 the cells in wells without the activity were put to death whereas the cells in wells with the activity survived.
Cytotoxicity-inhibitory activity was determined for each of the peptides obtained above as described in Reference Example 1 and in accordance with Reference Example 2. As a result, selenocysteine-containing peptides, Peptide 3 through Peptide 16, were confirmed to have the cytotoxicity-inhibitory activity.

Series [2] relates to Dami cells. Description: Cytotoxicity induced by fatty acid and inhibitory activity thereto (Reference Example 2). The following applies: for fatty acid concentration inducing cytotoxicity: human. The method, then: To 1 ml Dami cells (1×10^6 cells/dish/3 ml), which can be subcultured in serum free medium SFO3 (manufactured by Sanko Jun-yaku K.K.) containing 0.05 μM 2ME and 0.1% BSA, was added 2 ml 1:2:2 mixed medium (SA medium) of RPMI 1640/D-MEM/F-12. The cells were cultured for three days and recovered for assay. The cells were washed twice with SA/0.05% fatty acid free BSA (manufactured by Wako Jun-yaku K.K.) and suspended at 3×10^4 cells/ml in the same medium containing 2 to 16 μM arachidonic acid, linoleic acid or linolenic acid. The cell suspension was added to a 96-well plate in each 198 μl for wells for sample addition or in each 100 μl for wells for serial dilution.
To the wells for sample addition was added each 2 μl of 100 μM assay sample and, after stirring, a serial dilution was made with the wells containing 100 μl cell suspension. The plate was incubated at 37° C. in CO2 incubator for 4 to 5 days.

In series [3] the test system is Dami cells. Briefly: Assessment system for activity to inhibit cytotoxicity induced by addition of albumin (Reference Example 1). It counts as cell-based. The method, then: As one of preferable embodiments, a culture system of Dami cells, human megakaryoblasts, with serum free culture medium supplemented with albumin was used for screening. […] A diluted sample of active fractions was added to this culture system so that the cytotoxicity-inhibitory activity could be assessed.
as §1, §2

Series [4] relates to Dami cells. Description: Minimum concentration for cytotoxic effect / effective minimum concentration (Example 2). It counts as cell-based. How it is done: Using Dami cells (described in Greenberg S. M. et al., Blood, vol. 72, p. 1968-1977 (1988)) for use in assay system for the cytotoxicity-inhibitory activity, the cells were washed twice with assay medium (50% PBS/SA/0.03% HSA (manufactured by SIGMA) or SA/0.05% BSA free from fatty acid (WAKO)/4 μM long-chain polyvalent fatty acid (e.g. arachidonic acid, linoleic acid or linolenic acid)) and suspended in the same medium at 3×10^4 cells/ml.

In series [5] the test system is intracellular GPX (glutathione peroxidase) activity in Dami cells. Briefly: Increase in intracellular GPX (glutathione peroxidase) activity (Example 5). It counts as cell-based, human. How it is done:
The resulting cells were suspended in SA/0.01% BSA at 5×10^5 cells/ml. To 1 ml of this cell suspension were added samples at a fixed concentration so as to compare a concentration that was effective for increase in GPX activity in the samples.
The samples included a selenoprotein P fragment, a synthetic peptide, selenocystine, selenomethionine, Ebselen and sodium selenite. The effect was compared among these samples. […] See FIG. 4 in which the axis of abscissas indicates a percent GPX activity induced by various samples with the GPX activity induced by addition of 10 nM selenoprotein P fragment being 100% while culture of Dami cells.

Setting [6] is: 1 nM, 10 nM selenoprotein P fragment being 100%.

For “Arg Ser Xaa Ser (RS[Sec]S; listed as Human plasma) [Peptide 7]”, the “Activity/1 mM Sec” value with Dami cells [1] is 95,000.

For the molecule vitamin E, the “effective concentration inhibiting cytotoxicity” value in the series with Dami cells [2] (in the presence of 4 μM linoleic acid) was “about 100 nM”. Consider `CC[C@H](C)[C@H](NC(=O)[C@H](CC(C)C)NC(=O)[C@H](Cc1c[nH]cn1)NC(=O)[C@H](CCCNC(=N)N)NC(=O)[C@H](CO)NC(=O)[C@H](Cc1c[nH]cn1)NC(=O)[C@H](CO)NC(=O)[C@H](CO)NC(=O)[C@H](C[SeH])NC(=O)[C@H](CO)NC(=O)[C@@H](N)CCCNC(=N)N)C(=O)N[C@@H](Cc1ccccc1)C(=O)N[C@@H](CCC(=O)O)C(=O)N[C@@H](CCCCN)C(=O)O` [Peptide 6] (H-RS[Sec]SSHSRHLIFEK-OH), for which the cytotoxicity-inhibitory activity entry in the series with Dami cells [1] (result in words) was “could inhibit cytotoxicity most effectively at the lowest concentration”. “Arg Ser Xaa Ser Ser His Cys Arg His Leu Ile Phe Glu Lys (RS[Sec]SSHCRHLIFEK; listed as Human plasma) [Peptide 5]”: the “Activity/1 mM Sec” value with Dami cells [1] is on record as 16,000. For the molecule “Arg Ser Xaa Ser Cys His Cys Arg His Leu Ile Phe Glu Lys (RS[Sec]SCHCRHLIFEK; cysteine pairing not given here; listed as Human plasma) [Peptide 4]”, in the series on Dami cells [1], the “Activity/1 mM Sec” value is given as 24,000. Still for that read-out and setting: the value for “Xaa Pro Ser Asn ([Sec]PSN; listed as Human plasma) [Peptide 13]” was 24,000. “Lys Arg Cys Ile Asn Gln Leu Leu Cys Lys Leu Pro Thr Asp Ser Glu Leu Ala Pro Arg Ser Xaa Cys Cys His Cys Arg His Leu Ile Phe Glu Lys (KRCINQLLCKLPTDSELAPRS[Sec]CCHCRHLIFEK; cysteine pairing not given here; listed as Human plasma) [SEQ ID NO: 3, peptide fragment purified under reduced condition from selenoprotein P fragment]”: the cytotoxicity-inhibitory activity entry in the series with Dami cells [3] (result in words, assay not specified) is listed as “had the cytotoxicity-inhibitory activity”. “RSSCCHCRHLIFEK (cysteine pairing not given here) [Peptide 2]”: in the series on Dami cells [1], the “Activity/1 mM Sec” value turned out to be 0.

In the case of “Lys Glu Phe Ile Leu His Arg Ser His Ser Ser Xaa Ser Arg (KEFILHRSHSS[Sec]SR; listed as Human plasma) [Peptide 14]”, the “Activity/1 mM Sec” value in the series with Dami cells [1] was 95,000. The same measure, in the same setting: the value for “Lys Asn Gln Ala Lys Lys Xaa Glu (KNQAKK[Sec]E; listed as Human plasma) [Peptide 12]” was 24,000. With `CCCCC/C=C\C/C=C\C/C=C\C/C=C\CCCCCC(=O)O` [adrenic acid], the “induction of cytotoxicity by fatty acid” value in the series on Dami cells [2] (10 μM, serum free culture, absence of selenoprotein P) is recorded as “induced cytotoxicity”.

For the molecule `N[C@@H](C[Se][Se]C[C@H](N)C(=O)O)C(=O)O` [selenocystine], in the series with Dami cells [4], the “toxicity upon addition to cell culture” value is on record as “fairly strong toxicity”. For the same molecule, the “increase in intracellular GPX activity” value in series [5] (setting [6]) is reported as “around 50%”. Consider `O=[Se](O)O` [sodium selenite], for which the “concentration at which toxicity was observed” value with Dami cells [4] (on the basis of selenium concentration, 4 to 5 days culture) is on record as “around 500 nM”. Also, in series [5] (setting [6]), the “increase in intracellular GPX activity” value is “around 50%”.

With “Glu Asn Leu Pro Ser Leu Ser Ser Xaa Gln Gly Leu Arg (ENLPSLSS[Sec]QGLR; listed as Human plasma) [Peptide 9]”, the “Activity/1 mM Sec” value with Dami cells [1] was 24,000. For `CCCCC/C=C\C/C=C\CCCCCCCC(=O)O` [linoleic acid], the “fatty acid concentration inducing cytotoxicity” value with Dami cells [2] is at least 4 µM. With “Leu Pro Pro Ala Ala Xaa Gln Ile Ser Gln Gln (LPPAA[Sec]QISQQ; listed as Human plasma) [Peptide 16]”, the “Activity/1 mM Sec” value in the series with Dami cells [1] was 24,000. Consider `O=c1c2ccccc2[se]n1-c1ccccc1` [Ebselen], for which, in the series on Dami cells [4], the “toxicity upon addition to cell culture” value was “exhibited a strong toxicity”. Consider “Thr Gly Ser Ala Ile Thr Xaa Gln Ser Lys (TGSAIT[Sec]QSK; listed as Human plasma) [Peptide 8]”, for which the “Activity/1 mM Sec” value in the series on Dami cells [1] is given as 79,000. Turning to “KRCINQLLCKLPTDSELAPRS (cysteine pairing not given here) [Peptide 1]”, in the series on Dami cells [1], the “Activity/1 mM Sec” value is recorded as 0. Same read-out and setting: then “Arg Ser Xaa Cys Cys His Cys Arg His Leu Ile Phe Glu Lys (RS[Sec]CCHCRHLIFEK; cysteine pairing not given here; listed as Human plasma) [Peptide 3]”, with 95,000; and “Ala Glu Glu Asn Ile Thr Glu Ser Ser Gln Xaa Arg (AEENITESSQ[Sec]R; listed as Human plasma) [Peptide 10]”, with 6,000.

Turning to `CCCCC/C=C\C/C=C\C/C=C\C/C=C\CCCC(=O)O` [arachidonic acid], in the series with Dami cells [2], the “fatty acid concentration inducing cytotoxicity” value is at least 4 µM. For “Leu Ile Pro Thr Glu Ala Ser Ala Ser Xaa Arg (LIPTEASAS[Sec]R; listed as Human plasma) [Peptide 11]”, the “Activity/1 mM Sec” value with Dami cells [1] was 28,000.

For the molecule `C[Se]CC[C@H](N)C(=O)O` [selenomethionine], the “effective minimum concentration of selenium to inhibit 80% or more of cytotoxicity” value in the series with Dami cells [4] is reported as “around 1 μM”. Besides, the “increase in intracellular GPX activity” value in series [5] (10 nM) is listed as “increase in the activity could scarcely be observed”.

B1: full-length selenoprotein P: selenoprotein P as an intact molecule, a protein from blood components (protein, UniProt P49908 1-381, looked up)
chain: MWRSLGLALALCLLPSGGTESQDQSSLCKQPPAWSIRDQDPMLNSNGSVTVVALLQASUYLCILQASKLEDLRVKLKKEGYSNISYIVVNHQGISSRLKYTHLKNKVSEHIPVYQQEENQTDVWTLLNGSKDDFLIYDRCGRLVYHLGLPFSFLTFPYVEEAIKIAYCEKKCGNCSLTTLKDEDFCKRVSLATVDKTVETPSPHYHHEHHHNHGHQHLGSSELSENQQPGAPNAPTHPAPPGLHHHHKHKGQHRQGHPENRDMPASEDLQDLQKKLCRKRCINQLLCKLPTDSELAPRSUCCHCRHLIFEKTGSAITUQCKENLPSLCSUQGLRAEENITESCQURLPPAAUQISQQLIPTEASASURUKNQAKKUEUPSN
modifications: full-length
notes: selenoprotein P as an intact molecule, a protein from blood components
As for B1, the “toxicity upon addition to cell culture” value with Dami cells [4] is “no strong toxicity”.

B2: SEQ ID NO: 2: selenoprotein P fragment with the amino acid sequence from 260th Lys to 362nd Asn, Xaa represents selenocysteine (protein, listed as Human plasma)
chain: KRCINQLLCKLPTDSELAPRS[Sec]CCHCRHLIFEKTGSAIT[Sec]QCKENLPSLCS[Sec]QGLRAEENITESCQ[Sec]RLPPAA[Sec]QISQQLIPTEASAS[Sec]R[Sec]KNQAKK[Sec]E[Sec]PSN
Take B2: the cytotoxicity-inhibitory activity entry with Dami cells [3] was “having the cytotoxicity-inhibitory activity”.
